US11051515B2, “3-acyl-benzamides and their use as herbicides” (Bayer Aktiengesellschaft, priority 2017, dated 2021)

Tests used:
VERPE [1] = test: Pre-emergence action against VERPE; assay type: in vivo, Veronica persica; conditions: Dosage 320 g/ha, pre-emergence
Method in brief: (§1)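 Seeds sown in sandy loam in wood-fiber pots and covered with soil. Greenhouse growth; visual damage scored after 3 weeks versus untreated controls (100% = dead, 0% = like control).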

ABUTH [2] = test: Pre-emergence action against ABUTH; assay type: in vivo, Abutilon theophrasti; conditions: pre-emergence, dosage 320 g/ha, scored visually after 3 weeks vs untreated controls
Method in brief: as §1

ABUTH [3] = test: Post-emergence action against ABUTH; assay type: in vivo, Abutilon theophrasti; conditions: post-emergence, dosage 80 g/ha, visual assessment about 3 weeks after treatment vs untreated controls
Method in brief: (§2)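 Weeds grown in sandy loam in greenhouse, treated at one-leaf stage (2–3 weeks after sowing) with WP or EC formulations sprayed as aqueous suspension/emulsion at 600 to […] water with 0.2% wetting agent. Visual rating after about 3 weeks versus untreated controls, as % herbicidal action (100% = plants dead, 0% = like control).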

ALOMY [4] = test: Pre-emergence action against ALOMY; assay type: in vivo, Alopecurus myosuroides; conditions: dosage 320 g/ha; pre-emergence; scored visually after 3 weeks vs untreated controls; 100% = plants have died, 0% = like control plants
Method in brief: as §1

AMARE [5] = test: Pre-emergence action against AMARE; assay type: in vivo, Amaranthus retroflexus; conditions: pre-emergence, dosage 320 g/ha, scored visually after 3 weeks vs untreated controls
Method in brief: as §1

PHBPU [6] = test: Post-emergence action against PHBPU; assay type: in vivo, Pharbitis purpurea; conditions: post-emergence, dosage 80 g/ha
Method in brief: as §2

LOLRI [7] = test: Post-emergence action against LOLRI; assay type: in vivo, Lolium rigidum; conditions: dosage 80 g/ha, visual assessment about 3 weeks after treatment vs untreated controls
Method: Seeds of monocotyledonous and dicotyledonous weed and crop plants are laid out in sandy loam soil in wood-fiber pots, covered with soil and cultivated in a greenhouse under good growth conditions. 2 to 3 weeks after sowing, the test plants are treated at the one-leaf stage. The compounds of the invention, formulated in the form of wettable powders (WP) or as emulsion concentrates (EC), are then sprayed onto the green parts of the plants in the form of an aqueous suspension or emulsion at a water application rate equating to […], with addition of 0.2% wetting agent. After the test plants have been left to stand in the greenhouse under optimal growth conditions for about 3 weeks, the action of the preparations is assessed visually in comparison to untreated controls (herbicidal action in percent (%): 100% activity=the plants have died, 0% activity=like control plants). […] At the same time, inventive compounds leave Gramineae crops such as barley, wheat, rye, millet/Sorghum, corn or rice virtually undamaged when applied post-emergence, even at high active ingredient dosages. In addition, some substances are also harmless to dicotyledonous crops such as soya, cotton, oilseed rape, sugar beet or potatoes. Some of the compounds according to the invention have high selectivity and are therefore suitable for controlling unwanted vegetation in agricultural crops by the post-emergence method. The data of Tables B18 to B34 below illustrate, in an exemplary manner, the […] herbicidal action of the compounds according to the invention, the herbicidal activity being stated in percent.

VIOTR [8] = test: Post-emergence action against VIOTR; assay type: in vivo, Viola tricolor; conditions: post-emergence, dosage 80 g/ha
Method in brief: as §2

ALOMY [9] = test: Post-emergence action against ALOMY; assay type: in vivo, Alopecurus myosuroides; conditions: Dosage 80 g/ha, post-emergence
Method in brief: as §2

POLCO = test: Pre-emergence action against POLCO; assay type: in vivo, Polygonum convolvulus; conditions: Dosage 320 g/ha, pre-emergence
Method in brief: as §1

MATIN [10] = test: Pre-emergence action against MATIN; assay type: in vivo, Matricaria inodora; conditions: Dosage 320 g/ha, pre-emergence
Method in brief: as §1

SETVI [11] = test: Post-emergence action against SETVI; assay type: in vivo, Setaria viridis; conditions: post-emergence, dosage 80 g/ha, visual assessment about 3 weeks after treatment vs untreated controls
Method in brief: as §2

VIOTR [12] = test: Pre-emergence action against VIOTR; assay type: in vivo, Viola tricolor; conditions: Dosage 320 g/ha, pre-emergence
Method in brief: as §1

LOLRI [13] = test: Pre-emergence action against LOLRI; assay type: in vivo, Lolium rigidum; conditions: dosage 320 g/ha, scored visually after 3 weeks vs untreated controls
Method in brief: as §1

STEME [14] = test: Post-emergence action against STEME; assay type: in vivo, Stellaria media; conditions: post-emergence, dosage 80 g/ha
Method in brief: as §2

MATIN [15] = test: Post-emergence action against MATIN; assay type: in vivo, Matricaria inodora; conditions: post-emergence, dosage 80 g/ha, visual assessment about 3 weeks after treatment vs untreated controls
Method in brief: as §2

AVEFA [16] = test: Pre-emergence action against AVEFA; assay type: in vivo, Avena fatua; conditions: dosage 320 g/ha, scored visually after 3 weeks vs untreated controls
Method in brief: as §1

ECHCG [17] = test: Post-emergence action against ECHCG; assay type: in vivo, Echinochloa crus-galli; conditions: post-emergence, dosage 80 g/ha, visual assessment about 3 weeks after treatment vs untreated controls
Method in brief: as §2

AMARE [18] = test: Post-emergence action against AMARE; assay type: in vivo, Amaranthus retroflexus; conditions: post-emergence, dosage 80 g/ha, visual assessment about 3 weeks after treatment vs untreated controls
Method in brief: as §2

STEME [19] = test: Pre-emergence action against STEME; assay type: in vivo, Stellaria media; conditions: Dosage 320 g/ha, pre-emergence
Method in brief: as §1

VERPE [20] = test: Post-emergence action against VERPE; assay type: in vivo, Veronica persica; conditions: dosage 80 g/ha
Method in brief: as §2

SETVI [21] = test: Pre-emergence action against SETVI; assay type: in vivo, Setaria viridis; conditions: pre-emergence, dosage 320 g/ha, scored visually after 3 weeks vs untreated controls
Method in brief: as §1

CYPES [22] = test: Pre-emergence action against CYPES; assay type: in vivo, Cyperus esculentus; conditions: pre-emergence, dosage 320 g/ha, scored visually after 3 weeks vs untreated controls
Method in brief: as §1

ECHCG [23] = test: Pre-emergence action against ECHCG; assay type: in vivo, Echinochloa crus-galli; conditions: pre-emergence, dosage 320 g/ha, scored visually after 3 weeks vs untreated controls
Method in brief: as §1

PHBPU [24] = test: Pre-emergence action against PHBPU; assay type: in vivo, Pharbitis purpurea; conditions: Dosage 320 g/ha, pre-emergence
Method in brief: as §1

AVEFA [25] = test: Post-emergence action against AVEFA; assay type: in vivo, Avena fatua; conditions: post-emergence, dosage 80 g/ha, visual assessment about 3 weeks after treatment vs untreated controls
Method in brief: as §2

CYPES [26] = test: Post-emergence action against CYPES; assay type: in vivo, Cyperus esculentus; conditions: post-emergence, dosage 80 g/ha, visual assessment about 3 weeks after treatment vs untreated controls
Method in brief: as §2

SMILES | Pre-emergence action against VERPE (VERPE [1]) | Pre-emergence action against ABUTH (herbicidal activity) (ABUTH [2]) | Post-emergence action against ABUTH (herbicidal action in percent) (ABUTH [3]) | Pre-emergence action against ALOMY (herbicidal activity in percent) (ALOMY [4]) | Pre-emergence action against AMARE (herbicidal activity) (AMARE [5]) | Post-emergence action against PHBPU (PHBPU [6]) | Post-emergence action against LOLRI (herbicidal action in percent) (LOLRI [7]) | Post-emergence action against VIOTR (VIOTR [8]) | Post-emergence action against ALOMY (ALOMY [9]) | Pre-emergence action against POLCO (POLCO) | Pre-emergence action against MATIN (MATIN [10]) | Post-emergence action against SETVI (herbicidal action in percent) (SETVI [11]) | Pre-emergence action against VIOTR (VIOTR [12]) | Pre-emergence action against LOLRI (herbicidal activity) (LOLRI [13]) | Post-emergence action against STEME (STEME [14]) | Pre-emergence action against AVEFA (herbicidal activity) (AVEFA [16]) | Post-emergence action against ECHCG (herbicidal action in percent) (ECHCG [17]) | Post-emergence action against AMARE (herbicidal action in percent) (AMARE [18]) | Pre-emergence action against STEME (STEME [19]) | Post-emergence action against VERPE (VERPE [20]) | also measured
COCC(=O)c1c(C(F)(F)F)ccc(C(=O)Nc2nnnn2C)c1Cl [1-144] | 100% | 100% | 100% | 100% | 100% | 100 | 80% | 100 | 90% | 80% | 100% | 100% | 100% | 100% | 100 | 100% | 90% | 100% | 100% | 90 | Post-emergence action against MATIN (herbicidal action in percent) (MATIN [15]): 90%; SETVI (Table B8, pre-emergence herbicidal activity) (SETVI [21]): 100%; Pre-emergence action against CYPES (herbicidal activity) (CYPES [22]): 100%; Pre-emergence action against ECHCG (herbicidal activity) (ECHCG [23]): 100%; Pre-emergence action against PHBPU (PHBPU [24]): 100%
Cn1nnnc1NC(=O)c1ccc(C(F)(F)F)c(C(=O)CCl)c1Cl [1-145] | 100% | 100% | 100% | 100% | 100% | 100 | 80% | 100 | 90% | 100% | 100% | 100% | 100% | 100% | 100 | 100% | 100% | 100% | 100% | 100 | Post-emergence action against AVEFA (herbicidal action in percent) (AVEFA [25]): 90%; Post-emergence action against CYPES (herbicidal action in percent) (CYPES [26]): 100%; SETVI (Table B8, pre-emergence herbicidal activity) (SETVI [21]): 100%; Pre-emergence action against CYPES (herbicidal activity) (CYPES [22]): 100%; Pre-emergence action against ECHCG (herbicidal activity) (ECHCG [23]): 100%; Pre-emergence action against PHBPU (PHBPU [24]): 100%
CCn1nnnc1NC(=O)c1ccc(C(F)(F)F)c(C(=O)C2CC2C)c1Cl (stereo not shown) [2-148] | 100% | 100% | 90% | 90% | 100% | 90 | 80% | 90 | 90% | 90% | 100% | 90% | 100% | 90% | 90 | 90% | 90% | 90% | 90% | 90 | Post-emergence action against MATIN (herbicidal action in percent) (MATIN [15]): 90%; SETVI (Table B8, pre-emergence herbicidal activity) (SETVI [21]): 100%; Pre-emergence action against CYPES (herbicidal activity) (CYPES [22]): 90%; Pre-emergence action against ECHCG (herbicidal activity) (ECHCG [23]): 100%; Pre-emergence action against PHBPU (PHBPU [24]): 90%
